Results reported in ChEMBL document CHEMBL3045838, “Synthesis, antimicrobial and antioxidant activities of 2-[1-{3,5-diaryl-4,5-dihydro-1H-pyrazolenyl}]-4-(4-nitrophenyl)-[1,3]-thiazoles” (2013).
Values after ≈ are worked out from the molar mass of the structure shown.

Assays:
Format in all cases: functional
Staphylococcus aureus [1] = experiment: Antibacterial activity against Staphylococcus aureus ATCC 25923 assessed as growth inhibition at 1.56 to 25 ug/mL
Talaromyces marneffei [2] = experiment: Antifungal activity against Talaromyces marneffei assessed as growth inhibition at 1.56 to 25 ug/mL
Klebsiella pneumoniae [3] = experiment: Antibacterial activity against Klebsiella pneumoniae assessed as growth inhibition by serial plate dilution method
Aspergillus fumigatus [4] = experiment: Antifungal activity against Aspergillus fumigatus NCIM 902 assessed as growth inhibition at 1.56 to 25 ug/mL
Klebsiella pneumoniae [5] = experiment: Antibacterial activity against Klebsiella pneumoniae assessed as growth inhibition at 1.56 to 25 ug/mL
Escherichia coli [6] = experiment: Antibacterial activity against Escherichia coli ATCC 25922 assessed as growth inhibition at 1.56 to 25 ug/mL
Pseudomonas aeruginosa [7] = experiment: Antibacterial activity against Pseudomonas aeruginosa ATCC 27853 assessed as growth inhibition by serial plate dilution method
Aspergillus flavus [8] = experiment: Antifungal activity against Aspergillus flavus NCIM 524 assessed as growth inhibition at 1.56 to 25 ug/mL
Escherichia coli [9] = experiment: microbe, parasite or virus in culture; conditions: ATCC 25922
Description: Antibacterial activity against Escherichia coli ATCC 25922 assessed as growth inhibition by serial plate dilution method

Talaromyces marneffei [10] = experiment: Antifungal activity against Talaromyces marneffei assessed as growth inhibition by serial plate dilution method
[11] = tested on: Trichophyton mentagrophytes; experiment: Antifungal activity against Trichophyton mentagrophytes assessed as growth inhibition by serial plate dilution method
[12] = tested on: Radical scavenging activity; experiment: Antioxidant activity assessed as inhibition of DPPH radical generation at 4000 ug/mL after 15 min by UV-Vis spectrophotometric analysis relative to control; conditions: at 4000 µg/mL
Aspergillus fumigatus [13] = experiment: Antifungal activity against Aspergillus fumigatus NCIM 902 assessed as growth inhibition by serial plate dilution method
Staphylococcus aureus [14] = experiment: Antibacterial activity against Staphylococcus aureus ATCC 25923 assessed as growth inhibition by serial plate dilution method
Aspergillus flavus [15] = experiment: Antifungal activity against Aspergillus flavus NCIM 524 assessed as growth inhibition by serial plate dilution method
Pseudomonas aeruginosa [16] = experiment: Antibacterial activity against Pseudomonas aeruginosa ATCC 27853 assessed as growth inhibition at 1.56 to 25 ug/mL
[17] = tested on: Trichophyton mentagrophytes; experiment: Antifungal activity against Trichophyton mentagrophytes assessed as growth inhibition at 1.56 to 25 ug/mL

For `COc1ccc(C2=NN(c3nc(-c4ccc([N+](=O)[O-])cc4)cs3)C(c3ccc(-c4ccc(F)c(Cl)c4)o3)C2)cc1OC` (configuration not stated), the “diameter of the inhibition zone (DIZ)” value (Staphylococcus aureus [1]) was 16 mm, the “diameter of the inhibition zone (DIZ)” value (Talaromyces marneffei [2]) was 16 mm and the MIC (Klebsiella pneumoniae [3]) was 6.25 µg/mL (≈ 10.3 µM). For the same compound, the “diameter of the inhibition zone (DIZ)” value (Aspergillus fumigatus [4]) was 16 mm, the “diameter of the inhibition zone (DIZ)” value (Klebsiella pneumoniae [5]) was 16 mm and the “diameter of the inhibition zone (DIZ)” value (Escherichia coli [6]) was 16 mm. For the same compound, the MIC (Pseudomonas aeruginosa [7]) was 6.25 µg/mL (≈ 10.3 µM), the “diameter of the inhibition zone (DIZ)” value (Aspergillus flavus [8]) was 16 mm and the MIC (Escherichia coli [9]) was 6.25 µg/mL (≈ 10.3 µM). For the same compound, the MIC (Talaromyces marneffei [10]) was 6.25 µg/mL (≈ 10.3 µM), the MIC [11] was 6.25 µg/mL (≈ 10.3 µM) and the inhibition [12] was 74%. It also gave an MIC (Aspergillus fumigatus [13]) of 6.25 µg/mL (≈ 10.3 µM), an MIC (Staphylococcus aureus [14]) of 6.25 µg/mL (≈ 10.3 µM) and an MIC (Aspergillus flavus [15]) of 6.25 µg/mL (≈ 10.3 µM). The “diameter of the inhibition zone (DIZ)” value (Pseudomonas aeruginosa [16]) was 16 mm and the “diameter of the inhibition zone (DIZ)” value [17] was 16 mm.
With `COc1ccc(C2=NN(c3nc(-c4ccc([N+](=O)[O-])cc4)cs3)C(c3ccc(-c4ccc(Br)cc4)o3)C2)cc1OC` (configuration not stated) the “diameter of the inhibition zone (DIZ)” value (Staphylococcus aureus [1]) was 11 mm, the “diameter of the inhibition zone (DIZ)” value (Talaromyces marneffei [2]) was 11 mm and the MIC (Klebsiella pneumoniae [3]) was 12.5 µg/mL (≈ 19.8 µM). The “diameter of the inhibition zone (DIZ)” value (Aspergillus fumigatus [4]) was 11 mm, the “diameter of the inhibition zone (DIZ)” value (Klebsiella pneumoniae [5]) was 11 mm and the “diameter of the inhibition zone (DIZ)” value (Escherichia coli [6]) was 11 mm. The MIC (Pseudomonas aeruginosa [7]) was 12.5 µg/mL (≈ 19.8 µM), the “diameter of the inhibition zone (DIZ)” value (Aspergillus flavus [8]) was 11 mm and the MIC (Escherichia coli [9]) was 12.5 µg/mL (≈ 19.8 µM). The MIC (Talaromyces marneffei [10]) was 12.5 µg/mL (≈ 19.8 µM), the MIC [11] was 12.5 µg/mL (≈ 19.8 µM) and the inhibition [12] was 69%. It also gave an MIC (Aspergillus fumigatus [13]) of 12.5 µg/mL (≈ 19.8 µM), an MIC (Staphylococcus aureus [14]) of 12.5 µg/mL (≈ 19.8 µM) and an MIC (Aspergillus flavus [15]) of 12.5 µg/mL (≈ 19.8 µM). The “diameter of the inhibition zone (DIZ)” value (Pseudomonas aeruginosa [16]) was 11 mm and the “diameter of the inhibition zone (DIZ)” value [17] was 11 mm.
With `COc1ccc(C2=NN(c3nc(-c4ccc([N+](=O)[O-])cc4)cs3)C(c3ccc(-c4cc(Cl)c(Cl)cc4Cl)o3)C2)cc1OC` (configuration not stated) the “diameter of the inhibition zone (DIZ)” value (Staphylococcus aureus [1]) was 16 mm, the “diameter of the inhibition zone (DIZ)” value (Talaromyces marneffei [2]) was 16 mm and the MIC (Klebsiella pneumoniae [3]) was 6.25 µg/mL (≈ 9.53 µM). For the same compound, the “diameter of the inhibition zone (DIZ)” value (Aspergillus fumigatus [4]) was 16 mm, the “diameter of the inhibition zone (DIZ)” value (Klebsiella pneumoniae [5]) was 16 mm and the “diameter of the inhibition zone (DIZ)” value (Escherichia coli [6]) was 16 mm. The MIC (Pseudomonas aeruginosa [7]) was 6.25 µg/mL (≈ 9.53 µM), the “diameter of the inhibition zone (DIZ)” value (Aspergillus flavus [8]) was 16 mm and the MIC (Escherichia coli [9]) was 6.25 µg/mL (≈ 9.53 µM). For the same compound, the MIC (Talaromyces marneffei [10]) was 6.25 µg/mL (≈ 9.53 µM), the MIC [11] was 6.25 µg/mL (≈ 9.53 µM) and the inhibition [12] was 57%. The MIC (Aspergillus fumigatus [13]) was 6.25 µg/mL (≈ 9.53 µM), the MIC (Staphylococcus aureus [14]) was 6.25 µg/mL (≈ 9.53 µM) and the MIC (Aspergillus flavus [15]) was 6.25 µg/mL (≈ 9.53 µM). For the same compound, the “diameter of the inhibition zone (DIZ)” value (Pseudomonas aeruginosa [16]) was 16 mm and the “diameter of the inhibition zone (DIZ)” value [17] was 16 mm.
`O=C1O[C@H]([C@@H](O)CO)C(O)=C1O` was tested, and the inhibition [12] was 96%.
With `COc1ccc(C2=NN(c3nc(-c4ccc([N+](=O)[O-])cc4)cs3)C(c3ccc(-c4ccc(Cl)cc4)o3)C2)cc1OC` (configuration not stated) the “diameter of the inhibition zone (DIZ)” value (Staphylococcus aureus [1]) was 16 mm, the “diameter of the inhibition zone (DIZ)” value (Talaromyces marneffei [2]) was 16 mm and the MIC (Klebsiella pneumoniae [3]) was 6.25 µg/mL (≈ 10.6 µM). For the same compound, the “diameter of the inhibition zone (DIZ)” value (Aspergillus fumigatus [4]) was 16 mm, the “diameter of the inhibition zone (DIZ)” value (Klebsiella pneumoniae [5]) was 16 mm and the “diameter of the inhibition zone (DIZ)” value (Escherichia coli [6]) was 16 mm. The MIC (Pseudomonas aeruginosa [7]) was 6.25 µg/mL (≈ 10.6 µM), the “diameter of the inhibition zone (DIZ)” value (Aspergillus flavus [8]) was 16 mm and the MIC (Escherichia coli [9]) was 6.25 µg/mL (≈ 10.6 µM). It also gave an MIC (Talaromyces marneffei [10]) of 6.25 µg/mL (≈ 10.6 µM), an MIC [11] of 6.25 µg/mL (≈ 10.6 µM) and an inhibition [12] of 35%. It also gave an MIC (Aspergillus fumigatus [13]) of 6.25 µg/mL (≈ 10.6 µM), an MIC (Staphylococcus aureus [14]) of 6.25 µg/mL (≈ 10.6 µM) and an MIC (Aspergillus flavus [15]) of 6.25 µg/mL (≈ 10.6 µM). The “diameter of the inhibition zone (DIZ)” value (Pseudomonas aeruginosa [16]) was 16 mm and the “diameter of the inhibition zone (DIZ)” value [17] was 16 mm.
For `CC1(C)S[C@@H]2[C@H](NC(=O)[C@H](N)c3ccccc3)C(=O)N2[C@H]1C(=O)O` [AMPICILLIN], the “diameter of the inhibition zone (DIZ)” value (Staphylococcus aureus [1]) was 22 mm, the MIC (Klebsiella pneumoniae [3]) was 6.25 µg/mL (≈ 17.9 µM) and the “diameter of the inhibition zone (DIZ)” value (Klebsiella pneumoniae [5]) was 23 mm. The “diameter of the inhibition zone (DIZ)” value (Escherichia coli [6]) was 30 mm, the MIC (Pseudomonas aeruginosa [7]) was 6.25 µg/mL (≈ 17.9 µM) and the MIC (Escherichia coli [9]) was 6.25 µg/mL (≈ 17.9 µM). The MIC (Staphylococcus aureus [14]) was 1.56 µg/mL (≈ 4.46 µM) and the “diameter of the inhibition zone (DIZ)” value (Pseudomonas aeruginosa [16]) was 25 mm.
